Converted amounts (≈) assume the structure as drawn.
Assays:
Type in all cases: functional
Staphylococcus aureus [1] = assay: Antibacterial activity against Staphylococcus aureus 29213 assessed as inhibition of bacterial growth by two fold serial dilution method
Klebsiella pneumoniae = assay: Antibacterial activity against Klebsiella pneumoniae assessed as inhibition of bacterial growth by two fold serial dilution method
Staphylococcus aureus [2] = assay: Antibacterial activity against Staphylococcus aureus assessed as inhibition of bacterial growth by two fold serial dilution method
Escherichia coli [3] = assay: Antibacterial activity against Escherichia coli assessed as inhibition of bacterial growth by two fold serial dilution method
Acinetobacter baumannii = assay: Antibacterial activity against Acinetobacter baumannii assessed as inhibition of bacterial growth by two fold serial dilution method
Staphylococcus aureus [4] = assay: Antibacterial activity against Staphylococcus aureus 25923 assessed as inhibition of bacterial growth by two fold serial dilution method
Pseudomonas aeruginosa [5] = assay: Antibacterial activity against Pseudomonas aeruginosa 27853 assessed as inhibition of bacterial growth by two fold serial dilution method
Escherichia coli [6] = assay: Antibacterial activity against Escherichia coli 25922 assessed as inhibition of bacterial growth by two fold serial dilution method
Pseudomonas aeruginosa [7] = assay: Antibacterial activity against Pseudomonas aeruginosa assessed as inhibition of bacterial growth by two fold serial dilution method
Staphylococcus aureus [8] = assay: Antibacterial activity against methicillin-resistant Staphylococcus aureus N315 assessed as inhibition of bacterial growth by two fold serial dilution method
Enterococcus faecalis = assay: Antibacterial activity against Enterococcus faecalis assessed as inhibition of bacterial growth by two fold serial dilution method
Candida albicans = assay: Antibacterial activity against Candida albicans 90023 assessed as inhibition of bacterial growth

For `CCCCc1nc(Cl)c(C2NC(=O)NC(CN(c3ccc(OC)nn3)S(=O)(=O)c3ccc(N)cc3)=C2C(=O)OCC)[nH]1` (stereo not drawn), the MIC (Staphylococcus aureus [1]) was 64 mg/L (≈ 103 µM), the MIC (Klebsiella pneumoniae) was 16 mg/L (≈ 25.8 µM) and the MIC (Staphylococcus aureus [2]) was 32 mg/L (≈ 51.7 µM). The MIC (Escherichia coli [3]) was 128 mg/L (≈ 207 µM), the MIC (Acinetobacter baumannii) was 64 mg/L (≈ 103 µM) and the MIC (Staphylococcus aureus [4]) was 64 mg/L (≈ 103 µM). For the same compound, the MIC (Pseudomonas aeruginosa [5]) was 16 mg/L (≈ 25.8 µM), the MIC (Escherichia coli [6]) was 64 mg/L (≈ 103 µM) and the MIC (Pseudomonas aeruginosa [7]) was 128 mg/L (≈ 207 µM). For the same compound, the MIC (Staphylococcus aureus [8]) was 32 mg/L (≈ 51.7 µM) and the MIC (Enterococcus faecalis) was 64 mg/L (≈ 103 µM).
For `CCCCc1nc(Cl)c(C2NC(=O)NC(C)=C2C(=O)OCC)n1S(=O)(=O)c1cccc(Cl)c1` (stereo not drawn), the MIC (Staphylococcus aureus [1]) was 64 mg/L (≈ 124 µM), the MIC (Klebsiella pneumoniae) was 64 mg/L (≈ 124 µM) and the MIC (Staphylococcus aureus [2]) was 64 mg/L (≈ 124 µM). The MIC (Escherichia coli [3]) was 64 mg/L (≈ 124 µM), the MIC (Acinetobacter baumannii) was 128 mg/L (≈ 248 µM) and the MIC (Staphylococcus aureus [4]) was 32 mg/L (≈ 62.1 µM). For the same compound, the MIC (Pseudomonas aeruginosa [5]) was 64 mg/L (≈ 124 µM), the MIC (Escherichia coli [6]) was 32 mg/L (≈ 62.1 µM) and the MIC (Pseudomonas aeruginosa [7]) was 128 mg/L (≈ 248 µM). For the same compound, the MIC (Staphylococcus aureus [8]) was 16 mg/L (≈ 31 µM) and the MIC (Enterococcus faecalis) was 32 mg/L (≈ 62.1 µM).
Compound `O=c1nc(N(Cc2ccc(Cl)c(Cl)c2)CC(O)(Cn2cncn2)c2ccc(F)cc2F)c(F)c[nH]1` (stereo not drawn) has an MIC (Candida albicans) of 8 µM (≈ 4.2 µg/mL).
`CCCCc1nc(Cl)c(C2NC(=O)NC(CN(c3nccs3)S(=O)(=O)c3ccc(N)cc3)=C2C(=O)OCC)[nH]1` (stereo not drawn) was tested, and the MIC (Staphylococcus aureus [1]) was 256 mg/L (≈ 431 µM), the MIC (Klebsiella pneumoniae) was 256 mg/L (≈ 431 µM) and the MIC (Staphylococcus aureus [2]) was 256 mg/L (≈ 431 µM). For the same compound, the MIC (Escherichia coli [3]) was 256 mg/L (≈ 431 µM), the MIC (Acinetobacter baumannii) was 256 mg/L (≈ 431 µM) and the MIC (Staphylococcus aureus [4]) was 256 mg/L (≈ 431 µM). It also gave an MIC (Pseudomonas aeruginosa [5]) of 256 mg/L (≈ 431 µM), an MIC (Escherichia coli [6]) of 256 mg/L (≈ 431 µM) and an MIC (Pseudomonas aeruginosa [7]) of 256 mg/L (≈ 431 µM). For the same compound, the MIC (Staphylococcus aureus [8]) was 128 mg/L (≈ 215 µM) and the MIC (Enterococcus faecalis) was 256 mg/L (≈ 431 µM).
Work on `CCCCc1nc(Cl)c(C2NC(=O)NC(C)=C2C(=O)OCC)n1Cc1ccc(C)cc1` (stereo not drawn) yielded an MIC (Staphylococcus aureus [1]) of 64 mg/L (≈ 144 µM), an MIC (Klebsiella pneumoniae) of 128 mg/L (≈ 288 µM) and an MIC (Staphylococcus aureus [2]) of 64 mg/L (≈ 144 µM). The MIC (Escherichia coli [3]) was 32 mg/L (≈ 71.9 µM), the MIC (Acinetobacter baumannii) was 64 mg/L (≈ 144 µM) and the MIC (Staphylococcus aureus [4]) was 64 mg/L (≈ 144 µM). For the same compound, the MIC (Pseudomonas aeruginosa [5]) was 64 mg/L (≈ 144 µM), the MIC (Escherichia coli [6]) was 32 mg/L (≈ 71.9 µM) and the MIC (Pseudomonas aeruginosa [7]) was 128 mg/L (≈ 288 µM). The MIC (Staphylococcus aureus [8]) was 128 mg/L (≈ 288 µM) and the MIC (Enterococcus faecalis) was 64 mg/L (≈ 144 µM).
Work on `C=CCn1c(CCCC)nc(Cl)c1C1NC(=O)NC(C)=C1C(=O)OCC` (stereo not drawn) yielded an MIC (Staphylococcus aureus [1]) of 64 mg/L (≈ 168 µM), an MIC (Klebsiella pneumoniae) of 64 mg/L (≈ 168 µM) and an MIC (Staphylococcus aureus [2]) of 32 mg/L (≈ 84 µM). It also gave an MIC (Escherichia coli [3]) of 64 mg/L (≈ 168 µM), an MIC (Acinetobacter baumannii) of 64 mg/L (≈ 168 µM) and an MIC (Staphylococcus aureus [4]) of 128 mg/L (≈ 336 µM). It also gave an MIC (Pseudomonas aeruginosa [5]) of 128 mg/L (≈ 336 µM), an MIC (Escherichia coli [6]) of 64 mg/L (≈ 168 µM) and an MIC (Pseudomonas aeruginosa [7]) of 64 mg/L (≈ 168 µM). The MIC (Staphylococcus aureus [8]) was 64 mg/L (≈ 168 µM) and the MIC (Enterococcus faecalis) was 64 mg/L (≈ 168 µM).
With `CCCCc1nc(Cl)c(C2NC(=O)NC(C)=C2C(=O)OCC)n1CCC` (stereo not drawn) the MIC (Staphylococcus aureus [1]) was 128 mg/L (≈ 334 µM), the MIC (Klebsiella pneumoniae) was 64 mg/L (≈ 167 µM) and the MIC (Staphylococcus aureus [2]) was 16 mg/L (≈ 41.8 µM). The MIC (Escherichia coli [3]) was 64 mg/L (≈ 167 µM), the MIC (Acinetobacter baumannii) was 64 mg/L (≈ 167 µM) and the MIC (Staphylococcus aureus [4]) was 64 mg/L (≈ 167 µM). The MIC (Pseudomonas aeruginosa [5]) was 64 mg/L (≈ 167 µM), the MIC (Escherichia coli [6]) was 32 mg/L (≈ 83.6 µM) and the MIC (Pseudomonas aeruginosa [7]) was 32 mg/L (≈ 83.6 µM). It also gave an MIC (Staphylococcus aureus [8]) of 64 mg/L (≈ 167 µM) and an MIC (Enterococcus faecalis) of 32 mg/L (≈ 83.6 µM).
With `CCCCc1nc(Cl)c(C2NC(=O)NC(C)=C2C(=O)OCC)n1C` (stereo not drawn) the MIC (Staphylococcus aureus [1]) was 64 mg/L (≈ 180 µM), the MIC (Klebsiella pneumoniae) was 128 mg/L (≈ 361 µM) and the MIC (Staphylococcus aureus [2]) was 32 mg/L (≈ 90.2 µM). It also gave an MIC (Escherichia coli [3]) of 128 mg/L (≈ 361 µM), an MIC (Acinetobacter baumannii) of 64 mg/L (≈ 180 µM) and an MIC (Staphylococcus aureus [4]) of 256 mg/L (≈ 721 µM). The MIC (Pseudomonas aeruginosa [5]) was 256 mg/L (≈ 721 µM), the MIC (Escherichia coli [6]) was 64 mg/L (≈ 180 µM) and the MIC (Pseudomonas aeruginosa [7]) was 64 mg/L (≈ 180 µM). It also gave an MIC (Staphylococcus aureus [8]) of 64 mg/L (≈ 180 µM) and an MIC (Enterococcus faecalis) of 128 mg/L (≈ 361 µM).
In the case of `CCCCc1nc(Cl)c(C2NC(=O)NC(C)=C2C(=O)OCC)n1S(=O)(=O)c1ccc(F)cc1` (stereo not drawn), the MIC (Staphylococcus aureus [1]) is reported as 32 mg/L (≈ 64.1 µM), the MIC (Klebsiella pneumoniae) is reported as 128 mg/L (≈ 257 µM) and the MIC (Staphylococcus aureus [2]) is reported as 64 mg/L (≈ 128 µM). The MIC (Escherichia coli [3]) was 32 mg/L (≈ 64.1 µM), the MIC (Acinetobacter baumannii) was 64 mg/L (≈ 128 µM) and the MIC (Staphylococcus aureus [4]) was 64 mg/L (≈ 128 µM). It also gave an MIC (Pseudomonas aeruginosa [5]) of 64 mg/L (≈ 128 µM), an MIC (Escherichia coli [6]) of 32 mg/L (≈ 64.1 µM) and an MIC (Pseudomonas aeruginosa [7]) of 32 mg/L (≈ 64.1 µM). The MIC (Staphylococcus aureus [8]) was 16 mg/L (≈ 32.1 µM) and the MIC (Enterococcus faecalis) was 64 mg/L (≈ 128 µM).
Work on `Cc1cc(NS(=O)(=O)c2ccc(N)cc2)no1` [SULFAMETHOXAZOLE] yielded an MIC (Staphylococcus aureus [1]) of 16 mg/L (≈ 63.2 µM), an MIC (Klebsiella pneumoniae) of 32 mg/L (≈ 126 µM) and an MIC (Staphylococcus aureus [2]) of 32 mg/L (≈ 126 µM). It also gave an MIC (Escherichia coli [3]) of 32 mg/L (≈ 126 µM), an MIC (Acinetobacter baumannii) of 32 mg/L (≈ 126 µM) and an MIC (Staphylococcus aureus [4]) of 128 mg/L (≈ 505 µM). The MIC (Pseudomonas aeruginosa [5]) was 32 mg/L (≈ 126 µM), the MIC (Escherichia coli [6]) was 8 mg/L (≈ 31.6 µM) and the MIC (Pseudomonas aeruginosa [7]) was 64 mg/L (≈ 253 µM). For the same compound, the MIC (Staphylococcus aureus [8]) was 1 mg/L (≈ 3.95 µM) and the MIC (Enterococcus faecalis) was 64 mg/L (≈ 253 µM).
For `CCCCc1nc(Cl)c(C2NC(=O)NC(C)=C2C(=O)OCC)n1CC` (stereo not drawn), the MIC (Staphylococcus aureus [1]) was 256 mg/L (≈ 694 µM), the MIC (Klebsiella pneumoniae) was 64 mg/L (≈ 174 µM) and the MIC (Staphylococcus aureus [2]) was 64 mg/L (≈ 174 µM). For the same compound, the MIC (Escherichia coli [3]) was 64 mg/L (≈ 174 µM), the MIC (Acinetobacter baumannii) was 128 mg/L (≈ 347 µM) and the MIC (Staphylococcus aureus [4]) was 128 mg/L (≈ 347 µM). For the same compound, the MIC (Pseudomonas aeruginosa [5]) was 128 mg/L (≈ 347 µM), the MIC (Escherichia coli [6]) was 32 mg/L (≈ 86.8 µM) and the MIC (Pseudomonas aeruginosa [7]) was 64 mg/L (≈ 174 µM). The MIC (Staphylococcus aureus [8]) was 64 mg/L (≈ 174 µM) and the MIC (Enterococcus faecalis) was 64 mg/L (≈ 174 µM).
In the case of `CCCCc1nc(Cl)c(C2NC(=O)NC(C)=C2C(=O)OCC)n1CC(=O)N1CCOCC1` (stereo not drawn), the MIC (Staphylococcus aureus [1]) is reported as 64 mg/L (≈ 137 µM), the MIC (Klebsiella pneumoniae) is reported as 32 mg/L (≈ 68.4 µM) and the MIC (Staphylococcus aureus [2]) is reported as 64 mg/L (≈ 137 µM). The MIC (Escherichia coli [3]) was 128 mg/L (≈ 274 µM), the MIC (Acinetobacter baumannii) was 128 mg/L (≈ 274 µM) and the MIC (Staphylococcus aureus [4]) was 128 mg/L (≈ 274 µM). It also gave an MIC (Pseudomonas aeruginosa [5]) of 256 mg/L (≈ 547 µM), an MIC (Escherichia coli [6]) of 256 mg/L (≈ 547 µM) and an MIC (Pseudomonas aeruginosa [7]) of 64 mg/L (≈ 137 µM). It also gave an MIC (Staphylococcus aureus [8]) of 64 mg/L (≈ 137 µM) and an MIC (Enterococcus faecalis) of 128 mg/L (≈ 274 µM).
`CCCCc1nc(Cl)c(C2NC(=O)NC(C)=C2C(=O)OCC)n1Cc1ccc(F)cc1` (stereo not drawn) was tested, and the MIC (Staphylococcus aureus [1]) was 32 mg/L (≈ 71.3 µM), the MIC (Klebsiella pneumoniae) was 16 mg/L (≈ 35.6 µM) and the MIC (Staphylococcus aureus [2]) was 16 mg/L (≈ 35.6 µM). The MIC (Escherichia coli [3]) was 16 mg/L (≈ 35.6 µM), the MIC (Acinetobacter baumannii) was 32 mg/L (≈ 71.3 µM) and the MIC (Staphylococcus aureus [4]) was 32 mg/L (≈ 71.3 µM). It also gave an MIC (Pseudomonas aeruginosa [5]) of 32 mg/L (≈ 71.3 µM), an MIC (Escherichia coli [6]) of 16 mg/L (≈ 35.6 µM) and an MIC (Pseudomonas aeruginosa [7]) of 32 mg/L (≈ 71.3 µM). It also gave an MIC (Staphylococcus aureus [8]) of 16 mg/L (≈ 35.6 µM) and an MIC (Enterococcus faecalis) of 32 mg/L (≈ 71.3 µM).

Reference: ChEMBL document CHEMBL5143590, “Dihydropyrimidinone imidazoles as unique structural antibacterial agents for drug-resistant gram-negative pathogens” (Eur J Med Chem, 2022)
